Results from patent publication US10351548B2, “2-oxo-1,2-dihydropyridine-3-carboxamide compounds and their use as inhibitors of PDK1” (INTERNATIONAL SOCIETY FOR DRUG DEVELOPMENT S.R.L., priority 2015, dated 2019).
Like-named read-outs stand apart in the source and are kept apart here.

Legend:
U87MG cells = test: Annexin V and 7-AAD staining in U87MG cells (apoptosis); format: cell-based, human; conditions: 10 μM, 72 h
Method: Dual staining with Annexin V coniugated to fluorescein-isothiocyanate (FITC) and 7-amino-actinomysin (7-AAD) was performed using the commercially available kit (Muse Annexin V and Dead Cell Kit; Merck KGaA, Darmstadt, Germany). U87MG cells or GSCs were treated with DMSO (control), SA16, SA23 or IB35 for 72 h or seven days, respectively. At the end of the treatment periods, the percentages of living, apoptotic and dead cells were acquired and analysed by Muse™ Cell Analyzer as previously described (Daniele, S., et al., Combined inhibition of AKT/mTOR and MDM2 enhances Glioblastoma Multiforme cell apoptosis and differentiation of cancer stem cells. Sci. Rep., 2015. 5.).
It was then investigated whether the reduction in cell proliferation elicited by the PDK1 inhibitors could be associated with apoptosis. U87MG cells were treated for 72 h with DMSO (control), or 10 μM SA16, SA23 or IB35. At the end of the treatment period, the cells were collected, and the level of phosphatidylserine externalisation was evaluated using the Annexin V-staining protocol, as described above (FIG. 3). In FIG. 4 the data are expressed as the percentage of apoptotic cells (the data for the early-stage apoptotic cells shown in white, and the data for the late-stage apoptotic/necrotic cells shown in grey) versus the total number of cells. The data shown represented the mean±SEM of three different experiments. The significance of the differences was determined with a one-way ANOVA with Bonferroni post-test (*** p<0.001 vs. control).

PDK1 Direct kinase = PDK1 Direct kinase (Homo sapiens (Human), UniProt O15530); test: Kinase-specific FRET-based Z'-LYTE assay against PDK1 Direct kinase; format: biochemical
Method: The compounds of Formula (I) and (II) were tested in the biological test named Kinase-specific Z′-LYTE® assay (Invitrogen Corporation, Life Technologies).

[1] = test system: AKT phosphorylation at Thr308 in U87MG cells; test: PDK1 activity in U87MG cells, (T308)AKT phosphorylation ELISA; format: cell-based, human; conditions: for inhibition at 10 µM: Homo sapiens, U-87 MG, U87MG cells, read-out: peak of inhibition (percentage of PDK1 inhibition); for time of peak of inhibition of (T308)AKT phosphorylation / inhibition of AKT phosphorylation at Thr308: U87MG, 10 μM; for inhibition of AKT phosphorylation at Thr308: 0-120 min
Method: (§1) U87MG cells were cultured in 96-well microplates (5.000 cells/well), and treated for different times with 10 μM SA16, SA23 or IB35. At the end of the treatment period, the GSCs were centrifuged at 500×g for 3 minutes; cells were washed twice using fresh saline, and rapidly fixed with 4% (for adherent U87MG cells) or 8% (for suspension GSCs) formaldehyde to preserve activation of specific protein modification. The activity of PDK1 was assessed measuring the levels of phosphorylated AKT on Thr308, using a specific primary antibodies. The subsequent incubation with a secondary HRP-conjugated antibody and the developing solution allowed the colorimetric quantification of the levels of phosphorylated protein. The relative number of cells in each well was then determined using the Crystal-Violet assay. The results were calculated by subtracting the mean background value from the values obtained under each test condition: values were normalised to the number of cells in each well and were expressed as the percentages of the control (untreated cells) values.
280(4): p. 1107-1115). […] At the end of the treatment periods, the levels of (T308)AKT phosphorylation was evaluated using an ELISA kit, as described above. The data reported in FIG. 5 were expressed as the percentage of phosphorylated (T308)AKT relative to those of untreated cells (control), which were set at 100%, and were the mean values±SEM of three independent experiments performed in triplicate.

[2] = test system: AKT phosphorylation at Thr308 in GSCs; test: PDK1 activity in GSCs, (T308)AKT phosphorylation ELISA; format: cell-based, human; conditions: for time of peak of inhibition of AKT phosphorylation at Thr308 / inhibition of AKT phosphorylation at Thr308: 10 μM; for inhibition of AKT phosphorylation at Thr308: 0-120 min; for inhibition at 10 µM: Homo sapiens, read-out: peak of inhibition (percentage of PDK1 inhibition)
Method: as §1
The effects of the new compounds on PDK1 activity were investigated by ELISA assays also in GSCs. U87MG-derived CSCs were treated for the indicated times (0-120 min) with NSC medium containing DMSO (control), or 10 μM IIB35, SA23 or SA16. At the end of the treatment periods, the levels of AKT phosphorylation on Thr308 were evaluated using an ELISA assay, as above described. The data were expressed as the percentage of phosphorylated AKT relative to those of untreated cells (control), which were set at 100%, and were the mean values±SEM of three independent experiments performed in triplicate. The data are represented in FIG. 12. The significance of differences was performed using one-way ANOVA with Bonferroni post-test (* p<0.05, ** p<0.01, *** p<0.001 vs. control).

[3] = read-out: IC50 (nM) PDK1 direct

Sequence of PDK1 Direct kinase (O15530 whole entry): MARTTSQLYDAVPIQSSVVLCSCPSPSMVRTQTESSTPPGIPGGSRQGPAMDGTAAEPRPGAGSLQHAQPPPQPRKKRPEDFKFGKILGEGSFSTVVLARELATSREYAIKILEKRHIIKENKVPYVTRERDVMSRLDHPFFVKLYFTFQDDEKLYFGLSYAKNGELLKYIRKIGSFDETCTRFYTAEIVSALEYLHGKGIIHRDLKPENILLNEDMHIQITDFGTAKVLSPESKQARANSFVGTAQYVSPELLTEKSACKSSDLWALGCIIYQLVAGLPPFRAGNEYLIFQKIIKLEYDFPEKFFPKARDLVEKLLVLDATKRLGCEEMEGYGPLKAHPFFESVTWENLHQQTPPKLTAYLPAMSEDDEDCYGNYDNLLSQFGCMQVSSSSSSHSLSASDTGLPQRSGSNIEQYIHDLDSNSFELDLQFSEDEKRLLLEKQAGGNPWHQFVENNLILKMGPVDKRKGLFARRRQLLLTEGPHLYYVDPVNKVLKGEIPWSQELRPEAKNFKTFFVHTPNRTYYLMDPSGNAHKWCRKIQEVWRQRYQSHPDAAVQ

SMILES	percentage of total apoptotic cells (U87MG cells) [%]	phosphatidylserine externalization (early and late apoptosis/death) (U87MG cells)	inhibition at 10 µM (PDK1 Direct kinase) [%]	IC50 (PDK1 Direct kinase; [3]) [nM]	IC50 (PDK1 Direct kinase; read-out: PDK1 IC50) [nM]	inhibition at 10 µM [1] [%]	time of peak of inhibition of (T308)AKT phosphorylation [1] [min]	inhibition of AKT phosphorylation at Thr308 [1]	time of peak of inhibition of AKT phosphorylation at Thr308 [2] [min]	inhibition of AKT phosphorylation at Thr308 [2]	inhibition at 10 µM [2] [%]
O=C(CNC(=O)c1cccn(Cc2ccc(F)c(F)c2)c1=O)Nc1ccc2c(c1)/C(=C/c1cnc[nH]1)C(=O)N2 [IB35, (Z)—N-(2-((3-((1H-imidazol-5-yl)methylene)-2-oxoindolin-5-yl)amino)-2-oxoethyl)-1-(3,4-difluorobenzyl)-2-oxo-1,2-dihydro pyridine-3-carboxamide]	23.0±1.9	significant phosphatidylserine externalization	> 50	112	112	54 ± 5.2	120	significantly inhibited	120	significantly inhibited	80.4 ± 3.7
O=C1Nc2ccc(NC(=O)[C@H](NC(=O)c3cccn(Cc4ccc(F)c(F)c4)c3=O)c3ccccc3)cc2/C1=C/c1ncc[nH]1 [SA23, (Z)—(R)—N-(2-((3-((1H-imidazol-2-yl)methylene)-2-oxoindolin-5-yl)amino)-2-oxo-1-phenylethyl)-1-(3,4-difluorobenzyl)-2-oxo-1,2-dihydropyridine-3-carboxamide]	–	significant phosphatidylserine externalization	> 50	1520	1520	48.1 ± 5	120	significantly inhibited	120	significantly inhibited	69 ± 4.5
